This passage reports cytotoxicity results from ChEMBL document CHEMBL3507680, “University of Dundee, Gates Library screen for HepG2 cell viability”.

SMILES strings stand for the structures.

This data set in a line: Human HepG2 cell viability assay in 384 well format. Set-up: dose 125 nL, time 70.5 hour; cytotoxicity at 70.5 h: concentration not given beside the values. The class given is toxicity, cell-based. The settings on record: HepG2 cells, read-out: Inhibition.

Turning to `CC(C)(C)CNC[C@H]1Cn2c(-c3ccccc3)cnc2CO1`, the cytotoxicity at 70.5 h is -3.54%.
Then `COCC(=O)N[C@H](C)c1onc(-c2ccccc2)c1C(=O)O`, with -4.32%; and `COc1ccc(-c2noc([C@@H](C)NC(=O)CC(C)C)c2C(=O)O)cc1`, with -8.52%; and `Cn1cc(CNC[C@H]2Cn3ccnc3CO2)c2ccccc21`, with -5.61%.
As to `CNC(=O)C(C)(C)N1CCC[C@H]1C(=O)NC(C)(C)C`, the cytotoxicity at 70.5 h was 14.3%.
The result for `CN1CCC(N2CCN3C(=O)NC[C@H]3C2)CC1` reads -3.25%; that for `O=C(NC[C@H]1OC[C@@H](NCc2ccc(F)cc2)[C@@H]1O)c1ccncc1`, 0.548%; that for `OCCc1cc(CC2(NCc3ccncc3)COC2)no1`, -4.15%.
Take `O=C(NC[C@H]1OC[C@@H](NC2CCCCC2)[C@@H]1O)Nc1ccccc1`: the cytotoxicity at 70.5 h was found to be 15.8%.
Then `COc1ccc2nc3n(c2c1)[C@@H](CNC(=O)c1cncnc1)COC3`, with -2.36%; and `Cc1ccc2c(c1)nc1n2[C@@H](CNC(=O)c2ccccn2)COC1`, with 11.4%.
Then `Cc1nc(C)c(CN2CCOC[C@H](Oc3ccccc3)C2)s1`, with -10.6%; and `COc1ccc(CN2CCOC[C@H](OCc3ccccc3)C2)cc1`, with -8.76%.
Take `COc1ccc(CN2CCOC[C@H](OCCC(C)C)C2)cc1`: the cytotoxicity at 70.5 h was -4.37%.
The result for `Cc1cccc2c1nc1n2[C@@H](CNC(=O)c2cncnc2)COC1` reads -3.15%; that for `O=C(C1CCOCC1)N1CCN2C(=O)N(Cc3ccc(F)cc3)C[C@H]2C1`, -3.96%.
As to `c1ccc(O[C@H]2COCCN(Cc3c[nH]c4ccccc34)C2)cc1`, the cytotoxicity at 70.5 h is -6.76%.
The result for `COc1ccc(O[C@H]2COCCN(C(=O)c3ccno3)C2)cc1` reads -2.74%; that for `CC(C)(C)CN1CCOC[C@H]1c1nc(-c2cccc(F)c2)c[nH]1`, -6.97%.
Then `CN1C[C@@H](F)[C@@H](OCc2nc3ccc(C#N)cc3[nH]2)C1`, with -2.32%; and `CC(C)c1noc([C@@H]2Cc3[nH]cnc3CN2C(=O)Nc2ccccc2)n1`, with 9.88%.
The result for `O=C1CO[C@H]2CN(S(=O)(=O)c3ccccc3)C[C@H]2N1c1ccccc1` reads -8.37%.
Turning to `O=C1CO[C@H]2CN(Cc3cccnc3)C[C@H]2N1`, the cytotoxicity at 70.5 h is -1.16%.
Turning to `Cc1noc([C@@H]2C[C@H](NC(=O)NC(C)C)CN2C)n1`, the cytotoxicity at 70.5 h was -0.832%.
Turning to `CC(=O)N1CCC(NC2(Cc3cc(CN(C)C)on3)COC2)CC1`, the cytotoxicity at 70.5 h amounted to 11.9%.
Then `Cc1ccc(CNC2(Cc3cc(-c4ccc(F)cc4)on3)COC2)o1`, with -2.05%.
Then `COc1ccc(OCc2cc(C(=O)N3CCN[C@H](C)C3)n[nH]2)c(Cl)c1`, with -9.79%; and `CN(C)S(=O)(=O)N1CCN(c2ccnc(N3CCCC3)n2)CC1`, with -12.4%; and `Cc1ccc([C@@H]2CN(S(=O)(=O)N(C)C)C[C@H]2N(C)C)cc1`, with -5.83%.
The result for `NC(=O)C1CCN(C(=O)CCn2ccc3cc(Br)ccc32)CC1` reads -1.61%; that for `CCCS(=O)(=O)N1CCN(c2cc(-n3cnc(C)c3C)nc(C)n2)CC1`, -4.37%; that for `CCOC(=O)N1CCN(C(=O)c2ccc3ccn(C)c3c2)CC1`, -8.79%.
Consider `C[C@@H](NC(=O)c1cccs1)c1onc(-c2cccnc2)c1C(=O)O`, for which the cytotoxicity at 70.5 h came out at 2.92%.
Regarding `CCNC(=O)[C@@H]1CCCN1[C@@H](C(=O)NC)c1ccccc1`, the cytotoxicity at 70.5 h was -8.33%.
Then `COCCOC[C@]1(CNCc2ccc(OC)cc2)C[C@@H](O)[C@@H](O)C1`, with -7.9%; and `CNC(=O)[C@@H](c1ccccc1OC)N1CCC[C@H]1C(=O)NC(C)(C)C`, with -8.72%; and `COc1cccc(CNC[C@@]2(COc3cccnc3)C[C@@H](O)[C@@H](O)C2)c1`, with -3.95%.
